Assays:
[1] = molecular target: T1, Mitogen-activated protein kinase kinase kinase 5 (Homo sapiens) (UniProt Q99683); experiment: Selectivity interaction (KinomeScan (DiscoverX)) EUB0001049a MAP3K5; conditions: at 1 µM
T1 sequence (whole entry): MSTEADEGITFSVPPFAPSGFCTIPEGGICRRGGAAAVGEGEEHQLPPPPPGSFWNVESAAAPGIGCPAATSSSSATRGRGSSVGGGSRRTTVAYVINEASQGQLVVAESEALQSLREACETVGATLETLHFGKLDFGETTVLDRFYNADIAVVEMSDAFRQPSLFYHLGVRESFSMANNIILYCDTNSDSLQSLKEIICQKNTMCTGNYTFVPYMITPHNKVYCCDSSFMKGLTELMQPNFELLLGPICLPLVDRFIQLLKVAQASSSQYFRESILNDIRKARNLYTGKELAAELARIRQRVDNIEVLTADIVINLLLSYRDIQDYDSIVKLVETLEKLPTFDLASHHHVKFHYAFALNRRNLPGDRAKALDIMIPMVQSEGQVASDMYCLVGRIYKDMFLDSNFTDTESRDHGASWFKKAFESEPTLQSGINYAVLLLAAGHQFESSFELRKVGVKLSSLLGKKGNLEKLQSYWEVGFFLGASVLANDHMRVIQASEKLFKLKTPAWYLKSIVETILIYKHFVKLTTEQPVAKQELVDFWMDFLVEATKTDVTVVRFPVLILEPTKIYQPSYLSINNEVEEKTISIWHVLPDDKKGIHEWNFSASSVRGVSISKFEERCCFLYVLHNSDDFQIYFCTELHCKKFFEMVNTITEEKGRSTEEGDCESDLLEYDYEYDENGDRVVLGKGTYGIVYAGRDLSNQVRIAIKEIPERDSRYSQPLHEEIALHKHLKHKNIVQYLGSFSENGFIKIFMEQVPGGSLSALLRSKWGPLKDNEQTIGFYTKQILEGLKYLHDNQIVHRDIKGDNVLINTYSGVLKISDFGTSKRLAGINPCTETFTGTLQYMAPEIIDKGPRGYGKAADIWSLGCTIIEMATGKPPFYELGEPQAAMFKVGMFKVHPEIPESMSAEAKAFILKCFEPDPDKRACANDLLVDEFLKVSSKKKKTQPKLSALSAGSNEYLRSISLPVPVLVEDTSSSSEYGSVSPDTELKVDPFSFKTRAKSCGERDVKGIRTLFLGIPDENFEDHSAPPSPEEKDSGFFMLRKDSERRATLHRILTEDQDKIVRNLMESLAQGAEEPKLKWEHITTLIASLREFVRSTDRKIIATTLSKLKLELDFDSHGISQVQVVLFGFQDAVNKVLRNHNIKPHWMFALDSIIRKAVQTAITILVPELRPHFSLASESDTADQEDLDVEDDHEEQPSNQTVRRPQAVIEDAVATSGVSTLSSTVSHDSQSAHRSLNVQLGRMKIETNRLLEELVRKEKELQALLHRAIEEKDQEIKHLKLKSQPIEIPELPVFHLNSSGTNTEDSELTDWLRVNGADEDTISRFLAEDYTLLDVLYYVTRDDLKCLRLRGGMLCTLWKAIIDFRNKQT

[2] = molecular target: Platelet-derived growth factor receptor alpha (Homo sapiens, UniProt P16234); experiment: Selectivity interaction (Upstate Kinase Profiler service (Millipore)) EUB0000056c PDGFRA; conditions: at 1 µM
Chain of Platelet-derived growth factor receptor alpha (P16234 whole entry): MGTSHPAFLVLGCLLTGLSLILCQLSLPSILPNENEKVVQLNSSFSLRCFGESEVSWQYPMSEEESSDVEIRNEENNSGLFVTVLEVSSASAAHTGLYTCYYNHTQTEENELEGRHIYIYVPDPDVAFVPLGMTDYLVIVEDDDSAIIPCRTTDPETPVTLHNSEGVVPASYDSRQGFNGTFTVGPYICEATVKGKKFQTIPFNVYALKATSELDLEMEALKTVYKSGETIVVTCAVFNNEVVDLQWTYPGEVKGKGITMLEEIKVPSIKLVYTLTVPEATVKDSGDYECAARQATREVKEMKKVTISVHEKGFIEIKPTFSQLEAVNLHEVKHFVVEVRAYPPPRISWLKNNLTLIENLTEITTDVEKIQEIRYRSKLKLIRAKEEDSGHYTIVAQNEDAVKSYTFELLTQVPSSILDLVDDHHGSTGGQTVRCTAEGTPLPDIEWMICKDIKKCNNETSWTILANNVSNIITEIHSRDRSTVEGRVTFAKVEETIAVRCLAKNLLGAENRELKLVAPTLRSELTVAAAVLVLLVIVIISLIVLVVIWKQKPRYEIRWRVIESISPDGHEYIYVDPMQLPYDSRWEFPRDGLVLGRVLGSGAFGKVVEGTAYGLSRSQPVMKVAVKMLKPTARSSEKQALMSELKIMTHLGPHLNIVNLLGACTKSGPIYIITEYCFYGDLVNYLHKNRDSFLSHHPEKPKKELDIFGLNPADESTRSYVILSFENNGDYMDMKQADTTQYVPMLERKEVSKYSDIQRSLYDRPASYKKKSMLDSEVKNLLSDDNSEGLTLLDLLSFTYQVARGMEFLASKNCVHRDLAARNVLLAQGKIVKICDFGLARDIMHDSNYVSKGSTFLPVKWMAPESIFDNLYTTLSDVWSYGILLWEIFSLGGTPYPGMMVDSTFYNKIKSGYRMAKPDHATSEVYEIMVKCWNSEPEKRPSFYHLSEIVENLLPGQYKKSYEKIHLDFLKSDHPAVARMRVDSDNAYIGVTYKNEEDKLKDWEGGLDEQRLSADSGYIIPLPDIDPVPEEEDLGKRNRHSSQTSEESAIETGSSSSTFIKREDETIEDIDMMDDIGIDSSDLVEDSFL

[3] = molecular target: Mitogen-activated protein kinase kinase kinase kinase 1 (Homo sapiens) (UniProt Q92918); experiment: Selectivity interaction (ActivX KiNativ screen (ex vivo kinase selectivity in human PBMCs)) EUB0001619a MAP4K1; type: cell-based; conditions: PBMC, at 1 µM
[4] = molecular target: Citron Rho-interacting kinase (Homo sapiens) (UniProt O14578); experiment: Selectivity interaction (KinomeScan (DiscoverX)) EUB0001619a CIT; conditions: at 1 µM
Chain of Citron Rho-interacting kinase (Homo sapiens) (O14578 whole entry): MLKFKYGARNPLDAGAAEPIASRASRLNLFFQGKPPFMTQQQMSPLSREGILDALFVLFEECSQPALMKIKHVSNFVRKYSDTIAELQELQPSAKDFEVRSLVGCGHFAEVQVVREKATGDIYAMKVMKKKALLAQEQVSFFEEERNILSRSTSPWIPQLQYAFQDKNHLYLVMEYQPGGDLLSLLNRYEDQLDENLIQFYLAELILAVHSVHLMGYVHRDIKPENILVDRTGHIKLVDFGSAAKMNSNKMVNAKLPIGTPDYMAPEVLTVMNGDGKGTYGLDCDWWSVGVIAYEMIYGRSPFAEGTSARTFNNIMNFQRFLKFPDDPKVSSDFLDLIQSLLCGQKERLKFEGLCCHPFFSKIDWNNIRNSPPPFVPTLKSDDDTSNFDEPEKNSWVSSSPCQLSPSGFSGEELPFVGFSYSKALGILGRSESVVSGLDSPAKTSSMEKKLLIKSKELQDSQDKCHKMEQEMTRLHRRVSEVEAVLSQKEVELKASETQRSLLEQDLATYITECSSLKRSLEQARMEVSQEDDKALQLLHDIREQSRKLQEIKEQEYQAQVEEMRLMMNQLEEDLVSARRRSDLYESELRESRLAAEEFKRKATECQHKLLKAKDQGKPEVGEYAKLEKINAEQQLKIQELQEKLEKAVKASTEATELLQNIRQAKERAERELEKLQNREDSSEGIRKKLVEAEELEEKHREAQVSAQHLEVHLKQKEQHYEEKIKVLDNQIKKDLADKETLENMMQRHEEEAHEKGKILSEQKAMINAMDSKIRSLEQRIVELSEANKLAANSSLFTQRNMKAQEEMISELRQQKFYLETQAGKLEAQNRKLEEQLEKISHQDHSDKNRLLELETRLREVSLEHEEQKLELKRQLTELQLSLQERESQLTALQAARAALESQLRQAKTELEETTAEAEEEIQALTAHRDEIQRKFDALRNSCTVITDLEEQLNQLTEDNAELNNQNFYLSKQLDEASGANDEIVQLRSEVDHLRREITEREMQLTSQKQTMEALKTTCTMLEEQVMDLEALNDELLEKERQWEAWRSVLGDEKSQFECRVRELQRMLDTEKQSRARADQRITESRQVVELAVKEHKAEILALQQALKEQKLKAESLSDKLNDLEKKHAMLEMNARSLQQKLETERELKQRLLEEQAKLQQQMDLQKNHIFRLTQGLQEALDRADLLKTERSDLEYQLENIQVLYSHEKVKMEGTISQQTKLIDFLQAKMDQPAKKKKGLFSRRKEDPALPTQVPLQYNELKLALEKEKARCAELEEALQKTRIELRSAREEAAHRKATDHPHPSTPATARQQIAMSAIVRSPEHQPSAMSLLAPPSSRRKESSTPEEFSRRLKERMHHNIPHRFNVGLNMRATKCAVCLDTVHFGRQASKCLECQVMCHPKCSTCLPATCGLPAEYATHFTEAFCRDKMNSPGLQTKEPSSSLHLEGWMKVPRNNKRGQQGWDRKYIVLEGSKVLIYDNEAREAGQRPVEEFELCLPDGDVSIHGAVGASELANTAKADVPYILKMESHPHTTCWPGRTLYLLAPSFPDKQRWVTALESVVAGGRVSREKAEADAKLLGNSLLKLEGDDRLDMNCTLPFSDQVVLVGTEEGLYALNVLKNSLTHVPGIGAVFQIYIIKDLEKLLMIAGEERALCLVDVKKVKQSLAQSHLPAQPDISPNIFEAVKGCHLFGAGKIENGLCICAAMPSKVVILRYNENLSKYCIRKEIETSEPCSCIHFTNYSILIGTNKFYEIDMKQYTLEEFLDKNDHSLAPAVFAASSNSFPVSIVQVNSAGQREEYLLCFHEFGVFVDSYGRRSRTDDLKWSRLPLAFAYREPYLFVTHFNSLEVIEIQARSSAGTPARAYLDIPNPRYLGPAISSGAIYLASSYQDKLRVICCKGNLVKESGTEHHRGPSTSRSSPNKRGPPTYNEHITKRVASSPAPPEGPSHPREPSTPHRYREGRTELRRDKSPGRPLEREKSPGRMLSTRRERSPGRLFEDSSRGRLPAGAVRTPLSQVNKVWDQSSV

[5] = molecular target: T2, Serine/threonine-protein kinase Nek9 (Homo sapiens) (UniProt Q8TD19); experiment: Selectivity interaction (ActivX KiNativ screen (ex vivo kinase selectivity in human PBMCs)) EUB0001619a NEK9; type: cell-based; conditions: PBMC, at 1 µM
T2 sequence (whole entry): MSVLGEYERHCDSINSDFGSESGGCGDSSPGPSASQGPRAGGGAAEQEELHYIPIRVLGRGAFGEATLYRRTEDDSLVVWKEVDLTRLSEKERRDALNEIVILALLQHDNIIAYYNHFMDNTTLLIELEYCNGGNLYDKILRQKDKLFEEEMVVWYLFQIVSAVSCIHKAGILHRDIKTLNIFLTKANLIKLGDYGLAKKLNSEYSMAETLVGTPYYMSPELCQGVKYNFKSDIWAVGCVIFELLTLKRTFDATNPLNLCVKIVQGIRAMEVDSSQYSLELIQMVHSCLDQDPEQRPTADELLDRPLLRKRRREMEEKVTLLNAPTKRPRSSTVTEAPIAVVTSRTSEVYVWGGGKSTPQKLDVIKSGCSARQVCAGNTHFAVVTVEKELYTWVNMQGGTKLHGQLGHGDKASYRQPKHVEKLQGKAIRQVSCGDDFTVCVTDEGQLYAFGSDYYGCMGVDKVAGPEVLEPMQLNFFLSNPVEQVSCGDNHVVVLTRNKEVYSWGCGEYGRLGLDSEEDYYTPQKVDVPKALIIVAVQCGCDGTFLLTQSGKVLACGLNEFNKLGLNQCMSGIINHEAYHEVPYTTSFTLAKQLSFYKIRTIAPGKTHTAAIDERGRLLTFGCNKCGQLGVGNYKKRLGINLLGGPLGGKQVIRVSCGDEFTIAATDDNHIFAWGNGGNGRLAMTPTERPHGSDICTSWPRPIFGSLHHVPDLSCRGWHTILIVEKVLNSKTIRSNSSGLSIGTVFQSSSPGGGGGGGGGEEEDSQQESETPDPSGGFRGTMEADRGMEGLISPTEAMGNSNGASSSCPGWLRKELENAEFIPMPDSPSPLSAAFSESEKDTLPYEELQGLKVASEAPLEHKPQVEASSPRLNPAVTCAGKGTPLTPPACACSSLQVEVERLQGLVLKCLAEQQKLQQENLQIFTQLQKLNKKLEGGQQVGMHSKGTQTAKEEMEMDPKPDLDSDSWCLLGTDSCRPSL

[6] = molecular target: Receptor tyrosine-protein kinase erbB-3 (Homo sapiens) (UniProt P21860); experiment: Selectivity interaction (KinomeScan (DiscoverX)) EUB0001619a ERBB3; conditions: at 1 µM
[7] = molecular target: Mitogen-activated protein kinase kinase kinase 4 (Homo sapiens) (UniProt Q9Y6R4); experiment: Selectivity interaction (KinomeScan (DiscoverX)) EUB0000618a MAP3K4; conditions: at 10 µM
Chain of Mitogen-activated protein kinase kinase kinase 4 (Homo sapiens) (Q9Y6R4 whole entry): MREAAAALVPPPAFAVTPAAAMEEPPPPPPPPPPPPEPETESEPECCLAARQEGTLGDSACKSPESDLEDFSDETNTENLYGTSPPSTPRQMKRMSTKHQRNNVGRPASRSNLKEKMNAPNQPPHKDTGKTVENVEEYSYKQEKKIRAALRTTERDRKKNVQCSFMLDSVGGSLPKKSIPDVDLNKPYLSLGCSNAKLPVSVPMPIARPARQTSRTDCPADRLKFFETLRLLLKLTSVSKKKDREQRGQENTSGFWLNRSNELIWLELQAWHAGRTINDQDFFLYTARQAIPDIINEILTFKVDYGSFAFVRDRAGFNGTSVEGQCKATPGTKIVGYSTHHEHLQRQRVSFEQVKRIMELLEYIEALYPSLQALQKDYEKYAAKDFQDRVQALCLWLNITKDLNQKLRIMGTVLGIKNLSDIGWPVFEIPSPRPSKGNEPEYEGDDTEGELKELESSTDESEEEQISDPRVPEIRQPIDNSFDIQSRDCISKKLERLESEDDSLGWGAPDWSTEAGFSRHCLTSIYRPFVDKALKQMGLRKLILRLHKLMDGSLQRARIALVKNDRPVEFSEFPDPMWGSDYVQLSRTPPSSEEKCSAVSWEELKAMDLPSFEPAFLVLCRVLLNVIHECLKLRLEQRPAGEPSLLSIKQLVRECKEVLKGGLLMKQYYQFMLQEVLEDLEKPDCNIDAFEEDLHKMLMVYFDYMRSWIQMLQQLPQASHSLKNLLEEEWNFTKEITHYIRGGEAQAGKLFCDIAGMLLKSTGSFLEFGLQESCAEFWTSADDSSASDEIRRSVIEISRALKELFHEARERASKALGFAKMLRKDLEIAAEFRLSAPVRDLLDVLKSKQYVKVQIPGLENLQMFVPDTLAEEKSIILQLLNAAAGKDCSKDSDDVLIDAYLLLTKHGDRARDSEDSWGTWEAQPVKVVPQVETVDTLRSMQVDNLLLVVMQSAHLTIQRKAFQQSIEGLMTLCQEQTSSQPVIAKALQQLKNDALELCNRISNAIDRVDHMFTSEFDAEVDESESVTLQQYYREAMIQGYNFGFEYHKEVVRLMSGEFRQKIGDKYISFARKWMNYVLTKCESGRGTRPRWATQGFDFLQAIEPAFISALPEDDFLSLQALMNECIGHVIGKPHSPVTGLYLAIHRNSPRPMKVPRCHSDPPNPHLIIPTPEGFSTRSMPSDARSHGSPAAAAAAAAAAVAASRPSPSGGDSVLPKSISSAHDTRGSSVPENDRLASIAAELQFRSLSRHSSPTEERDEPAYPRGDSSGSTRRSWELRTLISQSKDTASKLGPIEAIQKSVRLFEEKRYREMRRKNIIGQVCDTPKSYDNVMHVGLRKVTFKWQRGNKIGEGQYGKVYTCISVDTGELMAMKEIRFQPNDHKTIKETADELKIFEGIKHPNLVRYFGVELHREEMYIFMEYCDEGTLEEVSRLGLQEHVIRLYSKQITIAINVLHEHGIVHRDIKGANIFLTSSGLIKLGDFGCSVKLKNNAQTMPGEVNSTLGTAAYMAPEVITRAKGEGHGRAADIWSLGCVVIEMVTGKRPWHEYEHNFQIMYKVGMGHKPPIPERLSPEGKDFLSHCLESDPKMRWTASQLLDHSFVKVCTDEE

## COc1cc(Nc2nc(C)cc(-c3cnn4nc(OC)ccc34)n2)cc(C(F)(F)F)c1
[1]
  % of control: 80%

## Cc1ccc(-c2ccc3c(ccc4sc5c(c43)NC[C@@H](C)NC5=O)n2)cn1
[2]
  % of inhibition: -24%

## N#Cc1cccc(-c2c[nH]c3ncnc(N4CCOCC4)c23)c1
[3]
  % of inhibition: 7%
[4]
  % of control: 100%
[5]
  % of inhibition: 3%
[6]
  % of control: 51%

## O[C@H]1CC[C@H](Nc2ncc3nc(Nc4c(F)cc(F)cc4F)n([C@H]4CCOC4)c3n2)CC1
[7]
  % of control: 100%

From ChEMBL document CHEMBL5465560, “Selectivity Literature for EUbOPEN Chemogenomic Library” (2024)
